Data on 64 compounds can be found in a melting point compilation (Tetko et al.; mined from patent text by program, amines drawn as free bases though some values may be those of a salt).

Some results are limits rather than exact numbers.

Usually melting point stands for the temperature, or range, at which the solid turns liquid.

`Cn1c(=O)nc(-c2ccccc2Cl)c2ccsc21` yielded a melting point of 225 to 226 °C.
For `CCc1c(C)sc(NC(=O)OC(C)(C)C)c1C(=O)O` the value was 196 to 197 °C.
For `COc1ccc(N2CCN(c3c(C)c(C)c4c(c3C)CC(C)(C)O4)CC2)cc1OC` the value was 135 to 137 °C; for `COc1cc2c(cc1OC)CCCCC(C(=O)N1CCN(C(=O)c3cc(OC)c(OC)c(OC)c3)CC1)=C2`, 170 to 171 °C; for `CN1CCN(C)c2c(cccc2[N+](=O)[O-])C1=O`, 146 to 147 °C.
The figure for `CC(C)c1cc(S(N)(=O)=O)c(C(C)C)cc1C(F)(F)F` is 171 to 174 °C; for `CCCCCCCNC(=O)N(C)c1ccc(C)c(-c2ccc(C=CC(=O)O)cc2)c1` it is 159 °C; for `CCCn1nc(C(C)C)c(C(=O)OCc2ccccc2C(=O)c2ccccc2)c1Cc1ccc(-c2ccccc2S(=O)(=O)NC(=O)OCC(C)C)c(F)c1` it is 52 to 59 °C.
The compound `CC(C)(C)C1=CC(=S)N=N1` yielded a melting point of 147 to 148 °C.
The figure for `CC(=O)Nc1cc(C)cc(CCC(=O)O)n1` is 202 °C; for `CCCCCCCCCCCC(CC(=O)NC(CCCNC(=O)OCc1ccccc1)COC1CCCCO1)OCc1ccccc1` (centres undefined) it is 84 to 86 °C.
The figure for `CC(=O)Nc1cc(Br)sc1Br` is 114 to 116 °C; for `CCOC(=O)C(Cl)=Cc1cc(NC(=O)C2=C(C(N)=O)CCCC2)ccc1Cl` it is 185 to 186 °C; for `CC(=O)c1cccc2c1CCc1ccccc1C2=O` it is 65 to 68 °C.
As to `COC(=O)[C@H](c1ccccc1Cl)N1CCc2sc(OC(=O)c3ccc([N+](=O)[O-])cc3)cc2C1`, the melting point fell in the range of 100 to 102 °C.
For `COc1cc(-c2csc(Br)c2Br)cc2oc(=O)c(C)c(C)c12` the value was 194 to 196 °C; for `COc1cc(CCO)cc(OC)c1-c1ccc(C[C@H](NC(=O)c2c(Cl)cccc2Cl)C(=O)OC(C)(C)C)cc1`, 96 to 98 °C.
For `NC(=S)CN1CCCC1=S` the value was 154 to 156 °C; for `N#Cc1c(N)oc2c1CCCC2`, 179 °C; for `CCCc1c2c(nn1-c1ccccc1)c(=O)[nH]c1ccccc12`, > 300 °C.
The compound `CC(C)(C)OC(=O)Nc1cn(-c2cccnc2)nc1Cl` displayed a melting point of 125 to 128 °C.
For `Cc1cccc(C)c1NC(=O)C=CC(=O)c1ccc(Cl)c(Cl)c1` the value was 213 to 215 °C; for `Cc1c(-c2ccc(OC3CCCC3)cc2)n(Cc2ccc(OCCO)cc2)c2ccc(OCc3ccccc3)cc12`, 129 to 131 °C; for `CCCc1c(OCCOc2cccc(C(=O)OCC)c2)ccc(C(C)=O)c1O`, 58 to 60 °C.
For `Cc1nc2ccc3c(c2o1)OC(CN1C2CCC1CC(O)(c1cccc(C(F)(F)F)c1)C2)CO3` (centres undefined) the value was 148 to 150 °C.
For `COc1cc(C(=O)C#Cc2ccccc2)cc(OC)c1OC` the value was 94 to 96 °C.
Take `N#CC1CCC(c2ccc(N)cc2)CC1` (centres undefined): the melting point is 132 to 140 °C.
In the case of `CN(C)Cc1ccc(/C=C/C(=O)O)cn1`, the melting point was 144 °C.
For `CCC(=O)Nc1nc2ccc(Cl)cc2nc1N` the value was 300 to 302 °C; for `CCCCCCCCCCOCc1ccc(CO)cc1`, 20 to 31 °C; for `CCCCCCCCCCCCCCOC(=O)CCCCc1cc(O)c(O)c([N+](=O)[O-])c1`, 46 to 47 °C.
In the case of `CCC(C)C(C)C(=O)Nc1ccc2ncnc(NC=C(C(=O)OC)C(=O)OC)c2c1` (centres undefined), the melting point lay in the range of 216 to 217 °C.
The figure for `CCCCCC1(c2ccc(C)cc2)OCc2c(O)c(C)nc(Cl)c21` (centres undefined) is 180 °C; for `COc1ccc(N(C)C(C)=O)cc1C` it is 65 to 66 °C.
For `O=C1c2ccccc2S(=O)(=O)N1C(c1cccs1)c1nnnn1-c1ccccc1` (centres undefined) the value was 192 to 193 °C; for `COc1cc2ncc(C#N)c(Nc3ccc4[nH]c(C)nc4c3)c2cc1OC`, 207 °C.
For `CC(C)N1CCc2ccc(C(=O)CCC(=O)N3CCC(c4ccc(Cl)cc4)CC3)cc2CC1` the value was 139 to 140 °C; for `CNC(=O)N(N)c1nnc(C(F)(F)F)s1`, 181 to 182 °C.
Regarding `CCN(CC)C1CCN(c2ccc(C(C)=O)cc2)CC1`, the melting point lay in the range of 125 to 127 °C.
Regarding `Cc1ccc(S(=O)(=O)NCCc2ccc(C(=O)CN3CCN(c4ccncc4)CC3)cc2)cc1`, the melting point was 133 to 135 °C.
The figure for `CC(C)c1cc(CC2SCNC2=O)cc(C(C)C)c1O` (centres undefined) is 136 to 139 °C; for `Cc1ccc(N2C(=O)C3=C(CCCC3)C2=O)c2c1OC(C)C2` (centres undefined) it is 158 to 160 °C.
For `COc1cccc2c(C)c3n(c(=O)c12)CCCS3` the value was 122 to 123 °C; for `O=C(Nc1cnc2c(c1)OCCN2)c1cc2cc(F)ccc2n1Cc1cccc(F)c1`, 265 to 266 °C; for `O=C(O)Cc1c[nH]c2cc(C3CC3)nn2c1=O`, > 300 °C.
For the compound `CC(SCCS(=O)(=O)N(C)C)c1ccc2c(c1)OCO2` (centres undefined), the melting point fell in the range of 93 to 94.5 °C.
`N#CC(C(=O)C(F)(F)F)c1cccc(Cl)c1Cl` (centres undefined) showed a melting point of 74 to 75 °C.
The figure for `COCn1c(-c2nc3c(OC)ccc(N4CCOCC4)c3s2)nc2ccc(C3CCNC3)nc21` (centres undefined) is 120 to 130 °C.
For `CCNCCNc1ccc(NCCN(CC)CC)c2c1C(=O)c1c(O)ccc(O)c1C2=O` the value was 161 to 163 °C; for `CN(C)Cc1ccc(CSCCNc2[nH]ccc2[N+](=O)[O-])o1`, 67 °C; for `CCOC(=O)[C@@H](Cc1cccnc1)NC(C)=O`, 80 °C.
`CC(=O)OC(C)(C)c1nnc(-c2ccc3ncn(-c4ccc(OC(F)(F)F)cc4)c3c2)o1`: the melting point was in the range of 150 to 151 °C.
For `C=Cc1cc([C@@H](C)NC(=O)C=Cc2ccc(C(C)(C)C)cc2)cc(F)c1NS(C)(=O)=O` the value was 127 to 129 °C; for `O=C1N(Cc2noc(C(F)F)n2)c2ccccc2C12COc1cc3c(cc12)OCO3` (centres undefined), 137 to 139 °C; for `N#Cc1cc(NC(=O)c2cc3ccccc3s2)ccc1N1CCN(C2CCOCC2)CC1`, > 285 °C.
For `CC(C)(CO)Cc1ccc2cc(CC(C)(C)CO)ccc2c1` the value was 162 to 165 °C; for `C=Cn1c(=O)c(C#N)c(N2CCN(C(=O)c3cccs3)CC2)c2cccnc21`, 228 °C; for `COc1cccc(OC)c1-c1nc2cnncc2[nH]1`, 207 °C.
In the case of `CCOP(=O)(Cc1ccc(-c2ccccc2)cc1)OCC`, the melting point fell in the range of 55 to 58 °C.
For `CC1(C)CC2(CC(C)(C)N1)OC1(CCCCCCCCCCC1)NC2=O` the value was 97 °C; for `Cc1cc(Cl)n2nc(S(=O)(=O)Nc3c(Cl)cccc3Cl)nc2c1`, 257 to 258 °C.
The compound `Cc1cccc(NC(=O)NCC(=O)N(CC(=O)N(C)c2ccc(F)cc2)c2ccccc2)c1` had a melting point of 135 °C.
The figure for `O=c1cc(Oc2ccccc2)c2cc(C(c3ccc(Cl)cc3)n3ccnc3)ccc2[nH]1` (centres undefined) is 233 °C; for `OC1CC2c3ccccc3CCN2C2CCCCC12` (centres undefined) it is 140 to 142 °C.
